US11371077B2, “High throughput cell-based screening for aptamers” (MeiraGTx UK II Limited, priority 2016, dated 2022)
Structures can show the parent of a compound that is named as a salt. Where two headings read alike, the source gives them in different places.

Legend:
Type in all cases: cell-based
gdg6-A8 riboswitch = experiment: Luciferase reporter assay, gdg6-A8 riboswitch, transfected HEK 293 cells; conditions: for fold induction at 100 µM: Homo sapiens, HEK293, gdg6-A8 riboswitch, Prestwick library compounds at 100 μM, HEK 293; for Fold Induction of luciferase activity: 100 µM
Source text: (§1) Riboswitches were constructed as described in PCT/US2016/016234 (in particular Examples 3 to 6), incorporated herein by reference. A truncated human beta-globin intron sequence was synthesized and inserted in the coding sequence of a firefly luciferase gene. A mutant human DHFR exon 2 was synthesized and inserted in the middle of this truncated beta-globin intron sequence using Golden gate cloning strategy. Aptamers including xpt-G/A^1, ydhl-G/A^2, yxj^3, add^4, gdg6-G/A^5 (citations for the aptamers are incorporated herein by reference) were synthesized as oligonucleotides (“oligos”) with 4 nucleotide overhang at the 5′ end that are complementary to two different BsaI sites individually (IDT), annealed and ligated to BsaI-digested mDHFR-Luci-acceptor vector.
(§2) 3.5×10^4 HEK 293 cells were plated in a 96-well flat bottom plate the day before transfection. Plasmid DNA (500 ng) was added to a tube or a 96-well U-bottom plate. Separately, TransIT-293 reagent (Mirus; 1.4 μL) was added to 50 μL Opti-mem I media (Life Technologies), and allowed to sit for 5 minutes at room temperature (RT). Then, 50 μL of this diluted transfection reagent was added to the DNA, mixed, and incubated at RT for 20 min. Finally, 7 μL of this solution was added to a well of cells in the 96-well plate.
(§3) 24 hours after media change, plates were removed from the incubator, and equilibrated to RT for several minutes on a lab bench, then aspirated. Glo-lysis buffer (Promega, 100 μL, RT) was added, and the plates maintained at RT for at least 5 minutes. Then, the well contents were mixed by 50 μL trituration, and 20 μL of each sample was mixed with 20 μL of bright-glo reagent (Promega) that had been diluted to 10% in glo-lysis buffer. 96 wells were spaced on an opaque white 384-well plate. Following a 5 min incubation at RT, luminescence was measured using a Tecan machine with 500 mSec read time. The luciferase activity was expressed as mean relative light unit (RLU)±S.D., and fold induction was calculated as the luciferase activity obtained with guanine treatment divided by luciferase activity obtained without guanine treatment.

add-A6 riboswitch = experiment: cells; conditions: add-A6 riboswitch, Prestwick library compounds at 100 μM, HEK 293; for fold induction at 100 µM: Homo sapiens, HEK293, read-out: Fold Induction of luciferase activity
Source text: as §1, §2, §3

ydhl-A6 riboswitch = experiment: Luciferase reporter assay, ydhl-A6 riboswitch, transfected HEK 293 cells; conditions: for fold induction at 100 µM: Homo sapiens; for Fold Induction of luciferase activity: ydhl-A6 riboswitch
Source text: (§4) A truncated human beta-globin intron sequence was synthesized and inserted in the coding sequence of a firefly luciferase gene. A mutant human DHFR exon 2 was synthesized and inserted in the middle of this truncated beta-globin intron sequence using Golden gate cloning strategy. Aptamers including xpt-G/A^1, ydhl-G/A^2, yxj^3, add^4, gdg6-G/A^5 (citations for the aptamers are incorporated herein by reference) were synthesized as oligonucleotides (“oligos”) with 4 nucleotide overhang at the 5′ end that are complementary to two different BsaI sites individually (IDT), annealed and ligated to BsaI-digested mDHFR-Luci-acceptor vector.
as §2, with “Separately, TransIT-293 reagent (Mirus; 1.4 μL) was added to 50 μL Opti-mem I media (Life Technologies), and allowed to sit for 5 minutes at room temperature (RT).” left out
as §3

gdg6-G8 riboswitch = experiment: Luciferase reporter assay, gdg6-G8 riboswitch, transfected HEK 293 cells; conditions: for Fold Induction of luciferase activity: 100 µM
Source text: as §1, §2, §3

ydhl-G8 riboswitch = experiment: Luciferase reporter assay, ydhl-G8 riboswitch, transfected HEK 293 cells; conditions: ydhl-G8 riboswitch; Prestwick library compounds at 100 μM; HEK 293
Source text: as §4
as §2, with “Separately, TransIT-293 reagent (Mirus; 1.4 μL) was added to 50 μL Opti-mem I media (Life Technologies), and allowed to sit for 5 minutes at room temperature (RT).” left out
as §3

add-G6 riboswitch = experiment: cells; conditions: add-G6 riboswitch, Prestwick library compounds at 100 μM, HEK 293; for fold induction at 100 µM: Homo sapiens, HEK293, read-out: Fold Induction of luciferase activity
Source text: as §4
as §2, with “Separately, TransIT-293 reagent (Mirus; 1.4 μL) was added to 50 μL Opti-mem I media (Life Technologies), and allowed to sit for 5 minutes at room temperature (RT).” left out
as §3, with “The luciferase activity was expressed as mean relative light unit (RLU)±S.D., and fold induction was calculated as the luciferase activity obtained with guanine treatment divided by luciferase activity obtained without guanine treatment.” left out

yxj-A6 riboswitch = experiment: cells; conditions: yxj-A6 riboswitch, Prestwick library compounds at 100 μM, HEK 293
Source text: as §4, §2
as §3, with “The luciferase activity was expressed as mean relative light unit (RLU)±S.D., and fold induction was calculated as the luciferase activity obtained with guanine treatment divided by luciferase activity obtained without guanine treatment.” left out

xpt-G17 riboswitch = experiment: Luciferase reporter assay, xpt-G17 riboswitch, transfected HEK 293 cells; conditions: Prestwick library compounds at 100 μM, HEK 293, preliminary screen; for Fold Induction of luciferase activity: xpt-G17 riboswitch; for fold induction at 100 µM: Homo sapiens, HEK293, xpt-G17 riboswitch
Source text: as §4, §2, §3

xpt-A8 riboswitch = experiment: cells; conditions: xpt-A8 riboswitch, Prestwick library compounds at 100 μM, HEK 293
Source text: as §1, §2, §3

[1] = HEK293, read-out: Fold Induction of luciferase activity, ydhl-A6 riboswitch, Prestwick library compounds at 100 μM, HEK 293
[2] = HEK293, read-out: Fold Induction of luciferase activity
[3] = Homo sapiens, HEK293, read-out: Fold Induction of luciferase activity

OCCN1CCN(CCCN2c3ccccc3C=Cc3ccccc32)CC1 [Opipramol dihydrochloride]
fold induction at 100 µM (gdg6-A8 riboswitch): 3.1
fold induction at 100 µM (add-A6 riboswitch): 4.3

O=C(CCCN1CCC(n2c(O)nc3ccccc32)CC1)c1ccc(F)cc1 [Benperidol]
fold induction at 100 µM (ydhl-A6 riboswitch; [1]): 3.1

CCN1CCCC(OC(=O)C(c2ccccc2)c2ccccc2)C1 (stereo not shown) [Piperidolate hydrochloride]
fold induction at 100 µM (ydhl-A6 riboswitch; [2]): 3.4

C[C@]12CC[C@H](O)C[C@H]1CC[C@@H]1[C@@H]2C[C@@H](O)[C@]2(C)[C@@H](C3=CC(=O)OC3)CC[C@]12O [Digoxigenin]
fold induction at 100 µM (ydhl-A6 riboswitch; [1]): 4.5
Fold Induction of luciferase activity (ydhl-A6 riboswitch; Prestwick library compounds at 100 μM, HEK 293, 100 µM): 3.3 fold

thioguanosine
Fold Induction of luciferase activity (gdg6-G8 riboswitch): 15.9 fold
Fold Induction of luciferase activity (ydhl-G8 riboswitch): 7.5 fold
Fold Induction of luciferase activity (add-G6 riboswitch): 7.9 fold
Fold Induction of luciferase activity (yxj-A6 riboswitch): 10.2 fold
Fold Induction of luciferase activity (xpt-G17 riboswitch): 21.0 fold
Fold Induction of luciferase activity (gdg6-A8 riboswitch): 20.1 fold
Fold Induction of luciferase activity (xpt-A8 riboswitch): 11.8 fold
Fold Induction of luciferase activity (add-A6 riboswitch): 5.9 fold

O=C(O)CCc1nc(-c2ccccc2)c(-c2ccccc2)o1 [Oxaprozin]
fold induction at 100 µM (ydhl-A6 riboswitch; [1]): 3.4

CC[C@]12CCCN3CCc4c(n(c5ccccc45)[C@@](O)(C(=O)OC)C1)[C@@H]32 [Vincamine]
fold induction at 100 µM (ydhl-A6 riboswitch; [2]): 3.3

COC1=C(OC)C(=O)C(CCCCCCCCCCO)=C(C)C1=O [Idebenone]
fold induction at 100 µM (add-G6 riboswitch): 6.7
fold induction at 100 µM (ydhl-A6 riboswitch; [2]): 3.5
fold induction at 100 µM (xpt-G17 riboswitch): 3.3

NC(=O)C[S+]([O-])C(c1ccccc1)c1ccccc1 (stereo not shown) [Modafinil]
fold induction at 100 µM (ydhl-A6 riboswitch; [1]): 3.8

Alverine citrate salt
Fold Induction of luciferase activity (ydhl-A6 riboswitch; Prestwick library compounds at 100 μM, HEK 293): 4.2 fold

CC(CN1c2ccccc2Sc2ccccc21)N(C)C (stereo not shown) [Promethazine hydrochloride]
fold induction at 100 µM (gdg6-G8 riboswitch; Homo sapiens, HEK293, gdg6-G8 riboswitch, Prestwick library compounds at 100 μM, HEK 293): 6.5
fold induction at 100 µM (add-G6 riboswitch): 6.7
fold induction at 100 µM (yxj-A6 riboswitch; [3]): 7.9
fold induction at 100 µM (xpt-G17 riboswitch): 5.3
fold induction at 100 µM (gdg6-A8 riboswitch): 4.8
fold induction at 100 µM (xpt-A8 riboswitch; [3]): 5.4
fold induction at 100 µM (add-A6 riboswitch): 4.5

CC(=O)c1ccc2c(c1)N(CCCN(C)C)c1ccccc1S2.O=C(O)/C=C\C(=O)O [Acetopromazine maleate salt]
Fold Induction of luciferase activity (gdg6-G8 riboswitch): 3.2 fold
Fold Induction of luciferase activity (ydhl-G8 riboswitch): 3.9 fold
Fold Induction of luciferase activity (add-G6 riboswitch): 5.0 fold
Fold Induction of luciferase activity (yxj-A6 riboswitch): 3.1 fold
Fold Induction of luciferase activity (xpt-G17 riboswitch): 4.5 fold
Fold Induction of luciferase activity (gdg6-A8 riboswitch): 8.6 fold
Fold Induction of luciferase activity (add-A6 riboswitch): 3.5 fold

Trimipramine maleate salt
Fold Induction of luciferase activity (gdg6-G8 riboswitch): 3.3 fold
Fold Induction of luciferase activity (add-G6 riboswitch): 3.4 fold
Fold Induction of luciferase activity (yxj-A6 riboswitch): 3.3 fold
Fold Induction of luciferase activity (gdg6-A8 riboswitch): 5.3 fold
Fold Induction of luciferase activity (add-A6 riboswitch): 3.4 fold
